Results from ChEMBL document CHEMBL3045485, “Synthesis of combretastatin analogs: evaluation of in vitro anticancer activity and molecular docking studies” (Med Chem Res, 2012).

Legend:
Type in all cases: functional
MCF7 = assay: Cytotoxicity against Homo sapiens (human) MCF-7 cells assessed as growth inhibition at 1 x 10^-6 mole after 48 hr by SRB assay
SF-295 = assay: Cytotoxicity against Homo sapiens (human) SF295 cells assessed as growth inhibition at 1 x 10^-6 mole after 48 hr by SRB assay
COLO 205 = assay: Cytotoxicity against Homo sapiens (human) COLO205 cells assessed as growth inhibition at 2 x 10^-5 mole after 48 hr by SRB assay
THP-1 = assay: Cytotoxicity against Homo sapiens (human) THP1 cells assessed as growth inhibition at 2 x 10^-5 mole after 48 hr by SRB assay

Structure (SMILES) | growth inhibition (GI) (MCF7) [%] | growth inhibition (GI) (SF-295) [%] | growth inhibition (GI) (COLO 205) [%] | growth inhibition (GI) (THP-1) [%]
COc1cccc2c1C(=O)c1c(O)c3c(c(O)c1C2=O)C[C@@](O)(C(=O)CO)C[C@@H]3O[C@H]1C[C@H](N)[C@H](O)[C@H](C)O1.Cl [DOXORUBICIN HYDROCHLORIDE] | 77 | 87 | – | –
O=c1[nH]cc(F)c(=O)[nH]1 [FLUOROURACIL] | – | – | 74 | 69
